Test results taken from patent US20250206738A1, “WRN INHIBITORS” (Nimbus Wadjet, Inc., priority 2023, published 2025).

How the values were obtained:
[1] = molecular target: T1, human Werner helicase (WRN, Uniprot Q14191, amino acids 517-1235 with L1074F point mutation; WRN-BV08) (Homo sapiens, UniProt Q14191, L1074F); experiment: WRN (BV08) ADP-Glo assay; format: biochemical; conditions: WRN-BV08 (aa 517-1235, L1074F); read-out: ADP-Glo_hWRN_IC50
T1 construct: Uniprot Q14191, amino acids 517-1235 with L1074F point mutation; 8xHis (C, cleaved yes); TEV cleavage site (ENLYFQG) (C, cleaved yes); made in house; host or cells: Sf9 insect cells (baculovirus, pFastBac)
T1 sequence (Q14191 with tags, fused parts or gaps L1074F): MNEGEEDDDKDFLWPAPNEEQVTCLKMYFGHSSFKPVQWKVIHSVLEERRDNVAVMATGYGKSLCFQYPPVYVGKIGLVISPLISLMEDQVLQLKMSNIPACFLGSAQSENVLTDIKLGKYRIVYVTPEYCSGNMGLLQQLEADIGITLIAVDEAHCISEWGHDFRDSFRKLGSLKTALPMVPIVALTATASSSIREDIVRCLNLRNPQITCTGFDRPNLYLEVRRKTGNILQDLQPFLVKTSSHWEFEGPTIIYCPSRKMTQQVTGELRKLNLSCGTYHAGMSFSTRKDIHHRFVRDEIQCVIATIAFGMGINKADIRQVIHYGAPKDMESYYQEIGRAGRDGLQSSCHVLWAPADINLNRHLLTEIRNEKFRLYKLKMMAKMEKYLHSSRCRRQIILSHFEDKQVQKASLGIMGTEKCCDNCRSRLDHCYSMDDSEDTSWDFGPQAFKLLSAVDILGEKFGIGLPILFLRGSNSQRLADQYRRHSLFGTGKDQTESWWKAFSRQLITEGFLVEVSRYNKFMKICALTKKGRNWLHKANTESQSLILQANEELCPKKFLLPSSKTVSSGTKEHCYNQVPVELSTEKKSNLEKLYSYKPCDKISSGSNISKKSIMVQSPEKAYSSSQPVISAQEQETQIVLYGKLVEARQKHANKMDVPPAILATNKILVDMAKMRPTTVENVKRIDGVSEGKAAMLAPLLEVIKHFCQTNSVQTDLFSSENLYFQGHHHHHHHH
How it was run: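 ADP formed by untagged WRN helicase fragment (aa 517-1235, L1074F; 0.15 nM final) on 0.1 nM DNA duplex with […], 60 min at 25 °C after 15 min compound preincubation, pH 7.5 Bicine buffer. Luminescent ADP-Glo readout; IC50 from 4-parameter fit of % inhibition.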

[2] = system: p21 induction in HCT 116 cells; experiment: p21 induction in cells (In-Cell Western, p21/GAPDH ratio); format: cell-based; conditions: Homo sapiens, HCT-116, 24 h, 24 h compound incubation, read-out: P21_EC50
How it was run: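 p21 and GAPDH signals quantified by In-Cell Western after 24 h compound exposure of HCT 116 cells (11 concentrations, 2-fold steps, usual top 10 μM). Percent activation from p21/GAPDH ratio relative to DMSO (low) and internal WRN inhibitor (high) controls; curve fit gave EC50.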

| Structure (SMILES) | IC50 [1] | EC50 [2] |
| --- | --- | --- |
| CCc1c(N2CCN(C(=O)c3c(O)ccc4ncoc34)CC2)c(=O)c2sc(-c3ccnc(OC)c3)nc2n1CC(=O)NC12CC(C(F)(F)F)(C1)C2 [I-37, 2-(5-ethyl-6-(4-(6-hydroxybenzo[d]oxazole-7-carbonyl)piperazin-1-yl)-2-(2-methoxypyridin-4-yl)-7-oxothiazolo[4,5-b]pyridin-4(7H)-yl)-N-(3-(trifluoromethyl)bicyclo[1.1.1]pentan-1-yl)acetamide] | 5 to 50 nM | 500 to 2000 nM |
| CCc1c(N2CCN(C(=O)c3c(O)ccc4ncoc34)CC2)c(=O)n2nc(-c3ccnc(OC)c3)nc2n1CC(=O)NC12CC(C(F)(F)C(F)(F)F)(C1)C2 [I-38, 2-(5-ethyl-6-(4-(6-hydroxybenzo[d]oxazole-7-carbonyl)piperazin-1-yl)-2-(2-methoxypyridin-4-yl)-7-oxo-[1,2,4]triazolo[1,5-a]pyrimidin-4(7H)-yl)-N-(3-(perfluoroethyl)bicyclo[1.1.1]pentan-1-yl)acetamide] | 5 to 50 nM | ≤ 500 nM |
| CCc1c(N2CCN(C(=O)c3c(OC)ncc(C)c3O)CC2)c(=O)n2nc(-c3ccnc(OC)c3)nc2n1CC(=O)NC12CC(C3CC3)(C1)C2 [I-39, N-(3-cyclopropylbicyclo[1.1.1]pentan-1-yl)-2-(5-ethyl-6-(4-(4-hydroxy-2-methoxy-5-methylnicotinoyl)piperazin-1-yl)-2-(2-methoxypyridin-4-yl)-7-oxo-[1,2,4]triazolo[1,5-a]pyrimidin-4(7H)-yl)acetamide] | 5 to 50 nM | ≤ 500 nM |
| CCc1c(N2CCN(C(=O)c3ncnc(C)c3O)CC2)c(=O)n2nc(-c3ccnc(OC)c3)nc2n1CC(=O)NC12CC(C(C)C)(C1)C2 [I-40, 2-(5-ethyl-6-(4-(5-hydroxy-6-methylpyrimidine-4-carbonyl)piperazin-1-yl)-2-(2-methoxypyridin-4-yl)-7-oxo-[1,2,4]triazolo[1,5-a]pyrimidin-4(7H)-yl)-N-(3-isopropylbicyclo[1.1.1]pentan-1-yl)acetamide] | 5 to 50 nM | ≤ 500 nM |
| CCc1c(N2CCN(C(=O)c3c(O)ccc4ncoc34)CC2)c(=O)n2nc(-c3ccnc(OC)c3)nc2n1CC(=O)NC12CC(C(F)(F)C(F)F)(C1)C2 [I-41, 2-(5-ethyl-6-(4-(6-hydroxybenzo[d]oxazole-7-carbonyl)piperazin-1-yl)-2-(2-methoxypyridin-4-yl)-7-oxo-[1,2,4]triazolo[1,5-a]pyrimidin-4(7H)-yl)-N-(3-(1,1,2,2-tetrafluoroethyl)bicyclo[1.1.1]pentan-1-yl)acetamide] | 5 to 50 nM | ≤ 500 nM |
| CCc1c(N2CCN(C(=O)c3c(O)ccc4ncoc34)CC2)c(=O)n2nc(C3=CCOCC3)nc2n1CC(=O)NC12CC(C(C)C)(C1)C2 [I-42, 2-(2-(3,6-dihydro-2H-pyran-4-yl)-5-ethyl-6-(4-(6-hydroxybenzo[d]oxazole-7-carbonyl)piperazin-1-yl)-7-oxo-[1,2,4]triazolo[1,5-a]pyrimidin-4(7H)-yl)-N-(3-isopropylbicyclo[1.1.1]pentan-1-yl)acetamide] | 5 to 50 nM | ≤ 500 nM |
| CCc1c(N2CCN(C(=O)c3c(O)ccc4ncoc34)CC2)c(=O)n2nc(N(C)C)nc2n1CC(=O)NC12CC(C(C)C)(C1)C2 [I-43, 2-(2-(dimethylamino)-5-ethyl-6-(4-(6-hydroxybenzo[d]oxazole-7-carbonyl)piperazin-1-yl)-7-oxo-[1,2,4]triazolo[1,5-a]pyrimidin-4(7H)-yl)-N-(3-isopropylbicyclo[1.1.1]pentan-1-yl)acetamide] | 5 to 50 nM | 500 to 2000 nM |
| CCc1c(N2CCN(C(=O)c3c(O)ccc4ncoc34)CC2)c(=O)n2nc(-c3ccnc(OC)c3)nc2n1CC(=O)NC12COC(C(F)(F)F)(C1)C2 [I-44, 2-(5-ethyl-6-(4-(6-hydroxybenzo[d]oxazole-7-carbonyl)piperazin-1-yl)-2-(2-methoxypyridin-4-yl)-7-oxo-[1,2,4]triazolo[1,5-a]pyrimidin-4(7H)-yl)-N-(1-(trifluoromethyl)-2-oxabicyclo[2.1.1]hexan-4-yl)acetamide] | 5 to 50 nM | 2000 to 5000 nM |
| CCc1c(N2CCN(C(=O)c3c(O)ccc4ncoc34)CC2)c(=O)n2nc(-c3ccnc(OC)c3)nc2n1CC(=O)NC12CCC(C(F)(F)F)(CC1)CC2 [I-45, 2-(5-ethyl-6-(4-(6-hydroxybenzo[d]oxazole-7-carbonyl)piperazin-1-yl)-2-(2-methoxypyridin-4-yl)-7-oxo-[1,2,4]triazolo[1,5-a]pyrimidin-4(7H)-yl)-N-(4-(trifluoromethyl)bicyclo[2.2.2]octan-1-yl)acetamide] | 5 to 50 nM | 2000 to 5000 nM |
| CCc1c(N2CCN(C(=O)c3c(O)ccc4ncoc34)CC2)c(=O)n2nc(-c3ccnc(OC)c3)nc2n1CC(=O)NC12CC(C3COC3)(C1)C2 [I-46, 2-(5-ethyl-6-(4-(6-hydroxybenzo[d]oxazole-7-carbonyl)piperazin-1-yl)-2-(2-methoxypyridin-4-yl)-7-oxo-[1,2,4]triazolo[1,5-a]pyrimidin-4(7H)-yl)-N-(3-(oxetan-3-yl)bicyclo[1.1.1]pentan-1-yl)acetamide] | 100 to 500 nM | > 5000 nM |
| CCc1c(N2CCN(C(=O)c3ncnc(C)c3O)[C@H]3CC[C@@H]32)c(=O)n2nc(-c3ccnc(OC)c3)nc2n1CC(=O)NC12CC(C(F)(F)F)(C1)C2 [I-48, 2-(5-ethyl-6-((1S,6S)-5-(5-hydroxy-6-methylpyrimidine-4-carbonyl)-2,5-diazabicyclo[4.2.0]octan-2-yl)-2-(2-methoxypyridin-4-yl)-7-oxo-[1,2,4]triazolo[1,5-a]pyrimidin-4(7H)-yl)-N-(3-(trifluoromethyl)bicyclo[1.1.1]pentan-1-yl)acetamide] | 5 to 50 nM | ≤ 500 nM |
| CCc1c(N2CCN(C(=O)c3c(O)cc(OC)cc3OC)CC2)c(=O)c2nn(-c3ccnc(OC)c3)nc2n1CC(=O)NC12CC(C3CC3)(C1)C2 [I-132, N-{3-cyclopropylbicyclo[1.1.1]pentan-1-yl}-2-{5-ethyl-6-[4-(2-hydroxy-4,6-dimethoxybenzoyl)piperazin-1-yl]-2-(2-methoxypyridin-4-yl)-7-oxo-2H,4H,7H-[1,2,3]triazolo[4,5-b]pyridin-4-yl}acetamide] | 5 to 50 nM | 2000 to 5000 nM |
| CCc1c(N2CCN(C(=O)c3cccc(N4CCN(C)CC4)c3)[C@H]3CC[C@@H]32)c(=O)c2nn(C3=CCOCC3)nc2n1CC(=O)NC12CC(C(C)C)(C1)C2 [I-201, 2-(2-(3,6-dihydro-2H-pyran-4-yl)-5-ethyl-6-((1S,6S)-5-(3-(4-methylpiperazin-1-yl)benzoyl)-2,5-diazabicyclo[4.2.0]octan-2-yl)-7-oxo-2,7-dihydro-4H-[1,2,3]triazolo[4,5-b]pyridin-4-yl)-N-(3-isopropylbicyclo[1.1.1]pentan-1-yl)acetamide] | ≤ 5 nM | 500 to 2000 nM |
| CCc1c(N2CCN(C(=O)c3ncccc3C(=O)O)[C@H]3CC[C@@H]32)c(=O)c2nn(-c3ccnc(OC)c3)nc2n1CC(=O)NC12CC(C(C)C)(C1)C2 [I-202, 2-((1S,6S)-5-(5-ethyl-4-(2-((3-isopropylbicyclo[1.1.1]pentan-1-yl)amino)-2-oxoethyl)-2-(2-methoxypyridin-4-yl)-7-oxo-4,7-dihydro-2H-[1,2,3]triazolo[4,5-b]pyridin-6-yl)-2,5-diazabicyclo[4.2.0]octane-2-carbonyl)nicotinic acid] | 5 to 50 nM | > 5000 nM |
| CCc1c(N2CCN(C(=O)c3c(O)ccc4ncoc34)CC2)c(=O)n2nc(N(C)C)nc2n1CC(=O)NC12CC(C3CCC3)(C1)C2 [I-203, N-(3-cyclobutylbicyclo[1.1.1]pentan-1-yl)-2-(2-(dimethylamino)-5-ethyl-6-(4-(6-hydroxybenzo[d]oxazole-7-carbonyl)piperazin-1-yl)-7-oxo-[1,2,4]triazolo[1,5-a]pyrimidin-4(7H)-yl)acetamide] | 5 to 50 nM | ≤ 500 nM |
| CCc1c(N2CCN(C(=O)c3c(OC)cccc3B(O)O)[C@H]3CC[C@@H]32)c(=O)c2nn(C3=CCOCC3)nc2n1CC(=O)NC12CC(C(C)C)(C1)C2 [I-204, (2-((1S,6S)-5-(2-(3,6-dihydro-2H-pyran-4-yl)-5-ethyl-4-(2-((3-isopropylbicyclo[1.1.1]pentan-1-yl)amino)-2-oxoethyl)-7-oxo-4,7-dihydro-2H-[1,2,3]triazolo[4,5-b]pyridin-6-yl)-2,5-diazabicyclo[4.2.0]octane-2-carbonyl)-3-methoxyphenyl)boronic acid] | 5 to 50 nM | ≤ 500 nM |
| CCc1c(N2CCN(C(=O)c3c(OC)ccnc3O)[C@H]3CC[C@@H]32)c(=O)c2nn(C3=CCOCC3)nc2n1CC(=O)NC12CC(C(C)C)(C1)C2 [I-205, 2-(2-(3,6-dihydro-2H-pyran-4-yl)-5-ethyl-6-((1S,6S)-5-(2-hydroxy-4-methoxynicotinoyl)-2,5-diazabicyclo[4.2.0]octan-2-yl)-7-oxo-2,7-dihydro-4H-[1,2,3]triazolo[4,5-b]pyridin-4-yl)-N-(3-isopropylbicyclo[1.1.1]pentan-1-yl)acetamide] | 5 to 50 nM | > 5000 nM |
| CCc1c(N2CCN(C(=O)c3c(O)ccc4ncoc34)CC2)c(=O)n2nc(-c3ccnc(OC)c3)nc2n1CC(=O)NC1CC2(CCC2)C1 [I-206, 2-(5-ethyl-6-(4-(6-hydroxybenzo[d]oxazole-7-carbonyl)piperazin-1-yl)-2-(2-methoxypyridin-4-yl)-7-oxo-[1,2,4]triazolo[1,5-a]pyrimidin-4(7H)-yl)-N-(spiro[3.3]heptan-2-yl)acetamide] | 5 to 50 nM | 500 to 2000 nM |
